A value given as a limit tells only on which side of the number the result lay.

The source of these data is patent publication US10822336B2, “Crystals of [2-(1-methyl-1H-pyrazol-4-yl)-6(morpholin-4-yl)-9H-purin-8-yl][4-(morpholin-4-yl)piperidin-1-yl]methanone and pharmaceutically acceptable salt thereof” (Daiichi Sankyo Company, Limited, priority 2016, dated 2020).

The target of one data set is T1, PI3Kα (Homo sapiens, UniProt P42336).
T1 construct: purchased Proteros, Germany
The data set can be described thus: In-vitro enzyme assay (Kinase-Glo luminescent kinase assay), PI3Kα. Format: biochemical. The settings on record: enzyme 2.29 μg/mL, ATP 10 μM, PIP2 60 μM, 2 hours; read-out: inhibitory activity (IC50) against PI3Kα. The protocol:
(§1) A Kinase-Glo luminescent kinase assay kit (manufactured by Promega) was used for measuring kinase activity. In this assay, the amount of ATP remaining in a solution after a kinase reaction was measured. To confirm the effect of a compound on PI3Kδ inhibition, 2.29 μg/ml recombinant PI3Kδ enzyme (Proteros, Germany) was added to a reaction mixture containing 10 mM MgCl2, 5 mM DTT, 60 μM phosphatidylinositol diphosphate (PIP2) and an assay buffer (containing 50 mM HEPES, pH7.4, 50 mM NaCl, 0.05% CHAPS) supplemented with 10 μM ATP in a final volume of 15 μl/well, in the presence and absence of compound (I), in a 384-well plate. The reaction mixture was incubated at room temperature for 2 hours. At the end of the incubation period, the same volume of Kinase-Glo plus (Promega, V3772) was added per well. After the reaction mixture was incubated at room temperature for 10 minutes in a dark place, emission was measured. The results were calculated by measuring the emission unit of the test sample relative to a blank containing no enzyme.
(§2) Using specific recombinant enzymes (Proteros, Germany) PI3Kα, PI3Kβ and PI3Kγ, inhibitory activities of compound (I) against each of the kinases were examined. The assay conditions of kinases (PI3Kα, PI3Kβ, PI3Kγ and PI3Kδ) were as follows.

A further data set has as its target T2, PI3Kβ (Homo sapiens, UniProt P42338).
T2 construct: purchased Proteros, Germany
The data set can be described thus: In-vitro enzyme assay (Kinase-Glo luminescent kinase assay), PI3Kβ. The settings on record: enzyme 2.29 μg/mL, ATP 10 μM, PIP2 60 μM, 2 hours; read-out: inhibitory activity (IC50) against PI3Kβ. In kind it is biochemical. As for the experimental part: as §1, §2

For a further data set, the target named is T3, PI3Kγ (Homo sapiens, UniProt P48736).
T3 construct: purchased Proteros, Germany
T3 sequence (P48736 whole entry, species assumed): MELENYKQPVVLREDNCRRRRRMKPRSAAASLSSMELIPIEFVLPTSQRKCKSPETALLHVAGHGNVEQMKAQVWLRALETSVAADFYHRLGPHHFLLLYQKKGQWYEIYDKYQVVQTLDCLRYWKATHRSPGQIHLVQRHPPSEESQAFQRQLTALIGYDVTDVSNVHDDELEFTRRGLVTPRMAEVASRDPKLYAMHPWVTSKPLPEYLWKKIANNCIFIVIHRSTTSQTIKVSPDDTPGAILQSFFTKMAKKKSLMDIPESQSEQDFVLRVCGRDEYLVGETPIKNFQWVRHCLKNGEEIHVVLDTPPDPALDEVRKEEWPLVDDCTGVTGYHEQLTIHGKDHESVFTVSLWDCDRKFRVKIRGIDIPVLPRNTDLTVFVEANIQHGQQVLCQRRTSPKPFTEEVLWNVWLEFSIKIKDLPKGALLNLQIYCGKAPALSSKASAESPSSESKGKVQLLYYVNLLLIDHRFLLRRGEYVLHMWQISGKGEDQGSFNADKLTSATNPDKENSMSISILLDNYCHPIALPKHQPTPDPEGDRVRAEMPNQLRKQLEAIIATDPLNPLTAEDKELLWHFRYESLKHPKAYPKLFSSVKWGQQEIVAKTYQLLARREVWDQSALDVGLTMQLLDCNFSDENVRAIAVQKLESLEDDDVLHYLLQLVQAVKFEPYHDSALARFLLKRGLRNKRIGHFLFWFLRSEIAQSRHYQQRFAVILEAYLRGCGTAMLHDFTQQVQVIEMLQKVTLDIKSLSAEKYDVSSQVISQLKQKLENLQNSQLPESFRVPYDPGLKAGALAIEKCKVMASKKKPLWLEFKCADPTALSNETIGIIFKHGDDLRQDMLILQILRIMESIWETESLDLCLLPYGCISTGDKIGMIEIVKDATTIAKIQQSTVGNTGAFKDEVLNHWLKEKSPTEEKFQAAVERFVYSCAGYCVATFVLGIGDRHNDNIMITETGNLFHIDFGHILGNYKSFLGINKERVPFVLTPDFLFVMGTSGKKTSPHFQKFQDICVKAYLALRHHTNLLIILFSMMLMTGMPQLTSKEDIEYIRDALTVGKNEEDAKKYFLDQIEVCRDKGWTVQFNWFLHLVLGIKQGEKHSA
The data set can be described thus: In-vitro enzyme assay (Kinase-Glo luminescent kinase assay), PI3Kγ. Format: biochemical. The settings on record: enzyme 2.29 μg/mL, ATP 10 μM, PIP2 60 μM, 2 hours; read-out: inhibitory activity (IC50) against PI3Kγ. As for the experimental part: as §1, §2

For data set [1], the system named is mitogen-induced IFN-γ release in mouse splenocytes. The data set can be described thus: Phytohaemagglutinin (PHA) inducible interferon (IFN)-gamma release in mouse splenocytes. In kind it is cell-based. The note with it: Splenocyte; C57BL/6 mouse splenocytes, PHA 10 μg/ml, 48 hours, ELISA; read-out: activity (IC50), inhibition of IFN-γ release. As for the experimental part:
Phytohaemagglutinin (PHA) Inducible Interferon (IFN)-Gamma Release in Mouse Splenocytes
In a cell based assay system, the effect of a compound on mitogen-induced IFN-γ release in mouse splenocytes was evaluated [Blood (2010) 115: 2203 to 2213 pages; Current Protocols in Immunology (2004) 3.12.1 to 3.12.20].
Mouse splenocytes were obtained from the spleen of a C57BL/6 mouse and seeded in a 96-well tissue culture plate at a density of 250,000 cells/well. The splenocytes were treated with the compound (I), and thereafter, stimulated with PHA (10 μg/ml) for 48 hours. In this manner, an effect of compound (I) on inhibition of IFN-γ release was evaluated. The IFN-γ release in the cell culture supernatant was quantified by ELISA in accordance with the manufacturer's protocol (BD Biosciences, #555138).

Data set [2] deals with Ovalbumin-induced airway eosinophilia. The data set can be described thus: Ovalbumin-induced airway eosinophilia model in Brown Norway rat. The settings on record: Eosinophil; bid, oral gavage, male Brown Norway rat, 48 hours after ovalbumin challenge; read-out: ED50 value (eosinophils in bronchoalveolar lavage fluid). In kind it is in vivo. As for the experimental part: Ovalbumin-Induced Airway Eosinophilia Model in Brown Norway Rat
The protocol used herein was described in Clin. Exp. Immunol., 2001; 126: 9 to 15 pages and J. Pharmacol. Exp. Ther., 2011; 337: 145 to 54 pages.
A male Brown Norway rat was sensitized by intraperitoneally injecting a suspension (in 0.9% physiological saline sterilized) of ovalbumin (1 mg) and aluminum hydroxide (100 mg) on Day 0 and Day 7. On Day 14, the compound (I) was administered to the rat by oral gavage. One hour after the oral administration, the animal was housed in a Perspex chamber and exposed to 5% ovalbumin aerosol for 10 minutes. The compound (I) was administered once or twice a day on Day 14 and Day 15. Forty eight hours after ovalbumin challenge, the animal was euthanized and bronchoalveolar lavage fluid was collected. The cell suspension was treated, and the absolute number of eosinophils were counted.

Data set [3] has as its system HDM-induced chronic asthma (eosinophils in bronchoalveolar lavage fluid). The data set can be described thus: House dust mite (HDM)-induced chronic asthma model of Balb/c mouse. Format: in vivo. The note with it: Eosinophil; bid, oral, third to fifth week, female Balb/c mouse, 48 hours after final HDM exposure. The protocol:
House Dust Mite (HDM)-Induced Chronic Asthma Model of Balb/c Mouse
The protocol used herein was described in Am. J. Respir. Crit. Care Med., 2004; 169: 378 to 385 pages.
A female Balb/c mouse was intranasally exposed to a purified HDM (Dermatophagoides pteronyssinus) extract at maximum for 5 successive weeks at a frequency of 5 days/week (protein (25 μg) in physiological saline (20 μl)). The compound (I) was orally administered twice a day from the third week to fifth week. Forty eight hours after the final HDM exposure, the animal was euthanized and bronchoalveolar lavage fluid was collected. The cell suspension was treated, and the absolute number of eosinophils were counted.

Data set [4] in a line: Oral bioavailability (BA) in rats. In kind it is in vivo. The settings on record: plasma; female Wistar rat, 10.0 mg/kg oral vs 3.0 mg/kg intravenous. As for the experimental part:
Oral Bioavailability (BA) in Rats
(§3) To a female Wistar rat (210±10 g), the compound (I) was intravenously administered as a solution containing the compound (I) (2.0 mg/mL) in a vehicle containing polysorbate and dextrose (pH5.0) or orally as a suspension of the compound (I) (1.0 mg/mL) in methyl cellulose. The final dosage in the case of intravenous administration was 3.0 mg/body weight (1 kg) or that in the case of oral administration was 10.0 mg/body weight (1 kg). A plasma sample was analyzed for the compound (I) by the LC-MS/MS method. Pharmacokinetic parameters were estimated by moment analysis. WinNonlin software 6.1 (Pharsight) was used for estimating the PK parameters. Oral bioavailability was calculated based on dose-normalized oral exposure and intravenous plasma exposure amounts.

A short description of data set [5]: Oral bioavailability (BA) in mice. Format: in vivo. The note with it: plasma; male Swiss mouse, 10.0 mg/kg oral vs 3.0 mg/kg intravenous. As for the experimental part: Oral Bioavailability (BA) in Mice
as §3, with “male Swiss mouse (23±3” for “female Wistar rat (210±10”, “(0.3” for “(2.0”

A short description of data set [6]: Method for examining solubility (JP1, JP2). In kind it is physicochemical. The settings on record: pH 1.2, simulated gastric fluid, thermodynamic from solid; Solution 1 (JP1) according to the Japanese Pharmacopoeia, room temperature. As for the experimental part: Method for Examining Solubility
A 10 mmol/L solution of the compound (I) in DMSO was prepared. The 10 mmol/L DMSO stock solution (100 μL) was dispensed to two labelled glass tubes: one for Solution 1 (JP1) according to the Japanese Pharmacopoeia and the other for Solution 2 (JP2) according to the Japanese Pharmacopoeia. DMSO was allowed to evaporate from each of the glass tubes, JP1 and JP2 solutions (500 μL) were added in the corresponding glass tubes. These glass tubes were ultrasonically treated for one minute and placed on a shaker for 30 minutes every 5 minutes at the intervals of 30 seconds. The glass tubes were placed in a dark place at room temperature for one hour and the solutions were filtered through a membrane filter. The filtrates were diluted 2 and 10 fold. The resultant test solutions were analyzed and quantified with UPLC (standard product: a 10 mmol/L solution in DMSO was serially diluted with a 50% aqueous acetonitrile solution to prepare two solutions: a 100 μmol/L standard solution and a 5 μmol/L standard solution) relative to the standard.

T1 sequence (P42336 whole entry, species assumed): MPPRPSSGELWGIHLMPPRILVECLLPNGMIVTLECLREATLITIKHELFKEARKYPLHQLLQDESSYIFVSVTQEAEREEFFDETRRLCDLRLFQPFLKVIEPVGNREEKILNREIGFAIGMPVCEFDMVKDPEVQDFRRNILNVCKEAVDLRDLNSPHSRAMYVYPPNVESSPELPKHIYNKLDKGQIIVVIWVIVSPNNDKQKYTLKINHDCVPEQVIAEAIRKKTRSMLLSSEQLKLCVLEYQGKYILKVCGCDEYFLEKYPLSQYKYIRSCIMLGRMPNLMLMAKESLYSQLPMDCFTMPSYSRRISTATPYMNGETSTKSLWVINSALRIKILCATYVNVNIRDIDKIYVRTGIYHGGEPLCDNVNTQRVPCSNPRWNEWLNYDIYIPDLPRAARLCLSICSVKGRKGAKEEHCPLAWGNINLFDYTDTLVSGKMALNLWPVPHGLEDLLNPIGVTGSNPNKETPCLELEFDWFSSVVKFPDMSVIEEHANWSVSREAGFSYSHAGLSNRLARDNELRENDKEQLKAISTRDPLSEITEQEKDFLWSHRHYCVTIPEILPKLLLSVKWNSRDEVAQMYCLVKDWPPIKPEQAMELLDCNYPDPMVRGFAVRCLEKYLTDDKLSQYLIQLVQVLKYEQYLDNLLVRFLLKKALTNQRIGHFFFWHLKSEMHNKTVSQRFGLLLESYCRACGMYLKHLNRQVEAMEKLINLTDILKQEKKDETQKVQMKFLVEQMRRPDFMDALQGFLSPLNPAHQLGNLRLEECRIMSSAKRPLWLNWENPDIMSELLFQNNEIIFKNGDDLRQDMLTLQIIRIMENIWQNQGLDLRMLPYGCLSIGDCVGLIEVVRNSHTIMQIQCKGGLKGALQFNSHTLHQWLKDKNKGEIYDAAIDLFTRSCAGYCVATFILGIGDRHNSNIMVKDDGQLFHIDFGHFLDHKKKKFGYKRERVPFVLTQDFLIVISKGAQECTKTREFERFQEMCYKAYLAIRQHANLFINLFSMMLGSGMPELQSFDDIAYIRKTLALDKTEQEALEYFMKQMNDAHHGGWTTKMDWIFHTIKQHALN
T1 sequence (P27986 whole entry partner, species assumed): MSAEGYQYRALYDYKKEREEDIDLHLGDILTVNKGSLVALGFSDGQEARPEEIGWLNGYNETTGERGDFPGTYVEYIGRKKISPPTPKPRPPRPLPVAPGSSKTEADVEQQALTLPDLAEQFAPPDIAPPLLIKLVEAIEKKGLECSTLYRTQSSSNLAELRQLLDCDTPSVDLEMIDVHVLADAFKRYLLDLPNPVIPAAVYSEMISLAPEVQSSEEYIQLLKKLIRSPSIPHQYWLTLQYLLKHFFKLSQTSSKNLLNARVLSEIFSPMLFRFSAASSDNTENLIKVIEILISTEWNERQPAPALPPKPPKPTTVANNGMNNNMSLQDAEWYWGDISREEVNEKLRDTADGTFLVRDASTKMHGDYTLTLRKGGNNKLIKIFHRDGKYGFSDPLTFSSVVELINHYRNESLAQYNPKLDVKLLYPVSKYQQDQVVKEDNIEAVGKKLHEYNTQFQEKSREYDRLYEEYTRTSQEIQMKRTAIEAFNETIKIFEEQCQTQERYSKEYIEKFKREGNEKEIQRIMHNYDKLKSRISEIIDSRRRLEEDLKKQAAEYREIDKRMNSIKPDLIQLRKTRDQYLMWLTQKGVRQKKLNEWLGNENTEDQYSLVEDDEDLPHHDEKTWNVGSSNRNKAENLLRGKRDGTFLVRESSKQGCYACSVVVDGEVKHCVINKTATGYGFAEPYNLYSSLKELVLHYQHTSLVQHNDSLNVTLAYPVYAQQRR
T2 sequence (P42338 whole entry, species assumed): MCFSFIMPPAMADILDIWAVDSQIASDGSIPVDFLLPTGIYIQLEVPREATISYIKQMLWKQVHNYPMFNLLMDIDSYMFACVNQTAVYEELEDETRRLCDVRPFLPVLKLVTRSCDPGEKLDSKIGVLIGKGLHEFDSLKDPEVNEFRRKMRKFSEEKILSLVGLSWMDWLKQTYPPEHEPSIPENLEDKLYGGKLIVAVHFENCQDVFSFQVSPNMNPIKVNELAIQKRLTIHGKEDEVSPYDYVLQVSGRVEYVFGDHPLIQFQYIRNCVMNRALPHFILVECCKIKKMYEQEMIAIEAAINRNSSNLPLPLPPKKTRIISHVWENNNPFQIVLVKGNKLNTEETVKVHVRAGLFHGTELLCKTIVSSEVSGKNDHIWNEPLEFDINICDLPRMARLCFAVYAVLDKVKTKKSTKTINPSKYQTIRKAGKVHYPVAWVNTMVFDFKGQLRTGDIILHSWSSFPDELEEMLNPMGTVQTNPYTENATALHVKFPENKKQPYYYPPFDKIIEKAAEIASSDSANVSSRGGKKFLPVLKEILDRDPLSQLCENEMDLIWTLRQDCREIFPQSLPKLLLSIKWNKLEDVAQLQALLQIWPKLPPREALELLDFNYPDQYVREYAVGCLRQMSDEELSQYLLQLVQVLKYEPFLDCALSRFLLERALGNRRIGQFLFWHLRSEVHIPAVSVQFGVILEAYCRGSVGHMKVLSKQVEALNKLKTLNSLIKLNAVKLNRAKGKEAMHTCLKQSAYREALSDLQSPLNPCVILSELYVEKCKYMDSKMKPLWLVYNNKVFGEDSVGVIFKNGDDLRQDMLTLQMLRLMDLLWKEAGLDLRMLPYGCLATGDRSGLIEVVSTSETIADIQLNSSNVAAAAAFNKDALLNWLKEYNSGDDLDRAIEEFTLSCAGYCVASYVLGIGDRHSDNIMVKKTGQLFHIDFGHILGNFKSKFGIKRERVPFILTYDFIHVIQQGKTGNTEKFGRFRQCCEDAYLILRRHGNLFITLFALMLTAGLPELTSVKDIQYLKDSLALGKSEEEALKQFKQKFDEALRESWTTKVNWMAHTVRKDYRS
T2 sequence (P27986 whole entry partner, species assumed): as the sequence (P27986 whole entry partner, species assumed) above

Turning to `Cn1cc(-c2nc(N3CCOCC3)c3nc(C(=O)N4CCC(N5CCOCC5)CC4)[nH]c3n2)cn1` [compound (I), [2-(1-methyl-1H-pyrazol-4-yl)-6-(morpholin-4-yl)-9H-purin-8-yl][4-(morpholin-4-yl)piperidin-1-yl]methanone], the IC50 on PI3Kα is at least 1000 nM; at PI3Kβ, at least 10000 nM; at PI3Kγ, at least 1000 nM; in data set [1], 6 nM. The ED50 worked out at 0.3 mg/kg in [2] and 0.1 mg/kg in [3]. Moreover, the bioavailability amounted to 88% in data set [4] and 100% in data set [5]. In data set [6], this compound displayed a solubility at 30 min of at least 1200 µg/mL.
